According to patent US7625889B2, “Substituted bis aryl and heteroaryl compounds as selective 5HT2A antagonists” (Aventis Pharmaceuticals Inc., priority 2005, dated 2009):

Test system: newborn Sprague Dawley rats
Test: Obstructive Sleep Apnea Studies (L-tryptophan plus pargyline)
Type: in vivo, rat
Experimental: Intraperitoneal application of L-tryptophan (10 mg/kg) and pargyline (50 mg/kg) to anaesthetized newborn rats depresses the amplitude of the inspiratory discharges of the genioglossal muscle and induces obstructive apneas (OA). The following procedure describes how to determine the efficacy of the compounds of this invention when compared with the efficacy of theophylline.
Experiments are carried out on newborn Sprague Dawley rats. The animals are anaesthetized by intraperitoneal injection of low doses of sodium pentobarbitone (7-10 mg/kg), kept lying (dorsal cubitus) on a warming blanket and are spontaneously ventilating.
The electromyogram (EMG) activity of the genioglossal muscles and the diaphragm are recorded with fine insulated wires (bipolar recordings) inserted within the muscles, filtered (100-3,000 Hz), amplified (×5-10,000) and integrated (time constant 50 ms). The rib cage movements are recorded via a captor gently touching the lower ribs and/or the abdominal wall. The air flow changes resulting from the respiratory chest movements are recorded via a facial mask and a highly sensitive pressure recorder. […]
Effects of theophylline pre-treatment on the occurrence of obstructive apneas induced by 1-tryptophan and pargyline injection are measured as follows: Five newborn rats receive theophylline at 10 mg/kg and 5 other animals receive theophylline at 30 mg/kg. […]

Cn1c(=O)c2[nH]cnc2n(C)c1=O [theophylline]
induction of OAs after L-Trp+Prg injection (theophylline 10 or 30 mg/kg): not prevented
depression of amplitude of GG inspiratory discharges by L-Trp+Prg injection (theophylline pre-treatment 10 mg/kg or 30 mg/kg): not prevented
